According to PMC5560558, “Expression and functional implications of the renal apelinergic system in rodents” (PLoS ONE, 2017):
Like-named read-outs stand apart in the source and are kept apart here. Values belong to the substance of their own block, whether it stands above or below them.

Key:
rat APJ = target: T1, rat APJ (Rattus norvegicus, UniProt Q9JHG3); assay: ERK1/2 activation (ppERK1/2 immunostaining, IN Cell Analyzer) in CHO-B78 cells; assay type: cell-based; details: 10min at 37°C
T1 construct: expressed in transfected cells; host or cells: CHO cells, stably transfected clonal line CHO-B78
T1 sequence (Q9JHG3 1-377): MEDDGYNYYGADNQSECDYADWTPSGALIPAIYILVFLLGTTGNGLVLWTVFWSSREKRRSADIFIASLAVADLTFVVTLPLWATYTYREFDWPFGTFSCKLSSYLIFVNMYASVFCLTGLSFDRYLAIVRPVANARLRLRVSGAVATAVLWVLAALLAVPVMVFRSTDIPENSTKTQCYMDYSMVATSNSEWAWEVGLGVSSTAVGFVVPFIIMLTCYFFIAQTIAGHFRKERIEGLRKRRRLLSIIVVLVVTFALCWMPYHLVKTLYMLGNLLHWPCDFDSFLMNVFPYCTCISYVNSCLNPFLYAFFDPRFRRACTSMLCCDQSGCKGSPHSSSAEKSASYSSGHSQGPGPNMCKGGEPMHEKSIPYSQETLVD
Procedure: Chinese hamster ovary (CHO) cells were transfected with the rat aplnr cDNA (B78 [23]) as previously described [26]. Stably-transfected clonal cells were obtained by limiting dilution, and expression of aplnr was determined by Northern dot blots using two ^32P-dATP-labelled 48bp oligonucleotide specific for the rat aplnr sequence (B78A and B78B [23]; see ISHH below). The highest aplnr-expressing cell clones were expanded for use, and one line (CHO-B78) was used for branched-chain in situ hybridization histochemistry and ERK signal transduction assays (see below).
The nuclear and cytoplasmic fluorescence intensities in individual cells were quantified (in arbitrary units)—data was normalized to vehicle controls after subtraction of ‘no primary antibody’ backgrounds. In each experiment the data (nuclear + cytoplasmic ppERK measurements) is mean ± SEM, n = 6 (approx 1200 cells imaged from 3 wells of a 96-well plate; experiments repeated twice).
IN Cell Analyser 1000 experiments were performed in triplicate wells, with experiments performed at least 2 times. Statistical analysis was with a one-way ANOVA and post hoc Dunnett’s test with GraphPad Prism software (version 4.0b). p<0.05 was considered as statistically significant.
Cells were treated for 10min at 37°C with the indicated concentration of ligands. […]

renal APJ = details: cited from earlier work
From the text: (§1) This depends on apela binding heterogeneous nuclear ribonucleoprotein L (hnRNPL), an inhi ... || The expression of genes for one or both APJ-ligands with their receptor in the same cell, or cells expressing either ligand gene in the close proximity of APJ-expressing cells, raises the possibility of autocrine and/or paracrine actions for the apelinergic system within the heart and kidney. […] Aplnr and apelin appear to be co-localized in endothelial cell ...

[1] = tested on: GPCR CXCR4 in cultured human umbilical vein endothelial cells; details: apela stimulation or knockdown, ref [41]; cited from earlier work
From the text: as §1, with “The” for “This depends on apela binding heterogeneous nuclear ribonucleoprotein L (hnRNPL), an inhi ... || The”

[2] = tested on: a number of tissues and cells; parameters: method as in PMID 23943882, PMID 25936916; details: ref [2],[19]; cited from earlier work
From the text: Many questions remain to be explored. For example, does apela in its ncRNA or peptide form(s) contribute to the pathological dispositions of some cardiovascular and metabolic conditions?

[3] = tested on: cardiac contractility in adult rodents and humans; details: in vivo, ref [2],[20],[33],[34],[35]; cited from earlier work
From the text: In zebrafish, apela is expressed primarily in the embryonic heart and appears to be the main APJ ligand in ...

[4] = tested on: human embryonic stem cells (ESCs); details: which did not express aplnr, ref [18]; cited from earlier work
From the text: (§2) This depends on apela binding heterogeneous nuclear ribonucleoprotein L (hnRNPL), an inhi ...

[5] = exogenously administered; ref [17]; cited from earlier work
From the text: as §2

APJ = tested on: APJ; parameters: method as in 3 sources, one per row (each row's own in cited_ref): ref [11],[12] = [11]; PMID 25995451; doi:10.1074/jbc.M115.648238; 11 Deng C , Chen H , Yang N , Feng Y , Hsueh AJW . Apela regulates fluid homeostasis by binding to the APJ receptor to activate Gi signaling . J Biol Chem . 2015; 290 : 18261 – 18268 . doi: 10.1074/j || [12]; PMID 25639753; doi:10.1038/srep08170; 12 Wang Z , Yu D , Wang M , Wang Q , Kouznetsova J , Yang R , et al Elabela-apelin receptor signaling pathway is functional in mammalian systems . Sci Rep . 2015; 5 : 8170 doi: 10.1038/srep08170 2563 ||| ref [2] = [2]; PMID 23943882; doi:10.1530/JOE-13-0227; 2 O’Carroll A-M , Lolait SJ , Harris LE , Pope GR . The apelin receptor APJ: journey from an orphan to a multifaceted regulator of homeostasis . J Endocrinol . 2013; 219 : 13 – 35 . 23943882 10.1530/ ||| ref [11] = [11]; PMID 25995451; doi:10.1074/jbc.M115.648238; 11 Deng C , Chen H , Yang N , Feng Y , Hsueh AJW . Apela regulates fluid homeostasis by binding to the APJ receptor to activate Gi signaling . J Biol Chem . 2015; 290 : 18261 – 18268 . doi: 10.1074/j; details: cited from earlier work
From the text: APJ activation by apelin-13 may involve multiple G proteins, while some actions involving ... || A second endogenous ligand for APJ has recently been discovered. Originally annotated as a long non-coding (nc) RNA (termed Ende) expressed primarily in the definitive endoderm during mouse embryogenesis, the apela (otherwise known as elabela or toddler) gene is also translated. It encodes a predicted 54 (58 in zebrafish) amino acid precursor molecule that is highly conserved across vertebrates and is structurally distinct from the apelin prohormone. The apela precursor can be enzymatically processed into a number of biologically active proteoforms such as ... || APJ was an orphan GPCR [23, 31] until its endogenous ligand apelin was isolated from stomach extracts by ‘reverse pharmacology’ almost 20 years ago [32]. It has recently been proposed that apela, a distinct protein unrelated to apelin, and highly conserved across vertebrates, is a new endogenous ligand for APJ.

microdissected glomeruli = microdissected glomeruli in vitro; ref [22]; cited from earlier work
From the text: as §1, with “The” for “This depends on apela binding heterogeneous nuclear ribonucleoprotein L (hnRNPL), an inhi ... || The”

collecting duct APJ = details: proposed, acting on collecting duct APJ; ref [24]; cited from earlier work
From the text: Apela mRNA transcripts appear to be more prevalent during development. They are predominantly expressed in the heart of embryonic rodents and zebrafish, and are also detected in isolated cells from the adult rat heart, and in adult rat and mouse kidney by RT-PCR. The precise renal location of apela gene expression in the kidney has not been reported. Evidence for renal apelin expression is less convincing—it appears to be sparsely distributed in tissue endothelial cells and perhaps vascular epithelial cells and glomeruli. In the rat and ...

EC50 (rat APJ; CHO-B78 cells stably transfected with rat aplnr, 0.01-1000nM ligand, serum-starved O/N (0.1% foetal calf serum), whole-cell (nuclear + cytoplasmic) ppERK immunofluorescence, averaged from two separate experiments, triplicate wells, read-out: EC50 for ERK activation): 15.9 nM
Substance: apela-32: rat apela-32 (cyclized, pyroglutamated; Severn Biotech, U.K.) (EKSVNFPRRRKLYRHNCFRRRCISLHSRVPFP; not fully specified; N-terminal pyroglutamate (from Gln1 of the mature peptide))

Substance: apela: second endogenous ligand for APJ; gene encodes a predicted 54 amino acid precursor molecule
effect on diuresis (renal APJ; exogenously administered, ref [11]): promotes diuresis
effect on CXCR4 expression [1]: no effect
anti-apoptotic activity [2]: anti-apoptotic activity
effect on cardiac contractility [3]: increase cardiac contractility
ERK activation (stimulation vs basal) (rat APJ; CHO-B78 cells, rat APJ, one-way ANOVA with post hoc Dunnett's test vs vehicle (basal)): activates signal transduction pathways (ERK activation) in cells expressing the cloned rat APJ
PI3K/Akt pathway activation [4]: activates the PI3K/Akt pathway
effect on apoptosis [4]: anti-apoptotic
effect on food intake [5]: anorexigenic
ERK activation in APJ-expressing cells (APJ; in vitro, previous studies confirmed by this paper, ref [11]): stimulates ERK activation in APJ-expressing cells in vitro

Substance: apelin
anti-apoptotic activity [2]: anti-apoptotic activity
effect on cardiac contractility [3]: increase cardiac contractility
signal transduction pathways activated on binding APJ (APJ; often G protein-dependent, ref [2]): inhibition of adenylate cyclase, stimulation of MAP kinase (ERK) phosphorylation, Akt phosphorylation that could contribute to neuroprotection, and enhancing nitric oxide synthase activity

Substance: apelin-17
effect on diuresis (renal APJ; intravenous, ref [22]): causes diuresis
effect on haemodynamic function in glomeruli (microdissected glomeruli): effects haemodynamic function in microdissected glomeruli in vitro
effect on antidiuretic action of arginine vasopressin (collecting duct APJ): counteracts the antidiuretic effect of arginine vasopressin
